How the values were obtained:
Assay in all cases: Microbiological challenge testing in BPW broth, graded subculture counts
Assay type in all cases: cell-based
[1] = tested on: Aspergillus niger Wild type; conditions: A. niger
Experimental: (§1) The microorganisms in the table below were used in challenge tests. They were either ATCC (American Type Culture Collection) or “wild type” as indicated. Wild type organisms were problematic organisms previously isolated from chemical products.
(§2) All of the microorganisms were grown in Tryptose Soy Broth (TSB), DIFCO™ available from Becton, Dickinson and Company, containing 1% dextrose. Candida albicans and Aspergillus niger, were incubated at 22° C.+/−2° C. for at least 96 hours. All bacteria were incubated at 35° C.+/−2° C. in a humidified incubator for at least 96 hours.
(§3) Candida albicans and Aspergillus niger were also grown on Sabouraud Dextrose Agar (SABD) at 22° C. for 7 to 14 days or until full sporulation was achieved.
(§4) The following procedure was followed to determine the amount of each challenge material (inoculum broth) needed to produce a 10^8 CFU/mL challenge, which is equivalent to a final test-sample microbial concentration of 10^5 to 10^6 CFU/mL (CFU=colony forming units).
(§5) Using a sterile pipette, 1 mL of the growth from each TSB culture was transferred into tubes of 9 mL buffered water (pH 7.2 phosphate buffer) and mixed thoroughly. This was repeated to make serial 1:10 dilutions. Then, 0.1 mL of each sample and dilution was inoculated onto agar plates to produce the equivalent of a further 1:10 dilution. (C. albicans and A. niger were inoculated onto SABD and bacteria were inoculated onto Plate Count Agar (PCA), DIFCO™ available from Becton, Dickinson and Company.) (The normal volume plated for most samples was 0.1 mL. Some samples that could be very low in micro-organisms (high dilutions) were plated using 0.5 mL of inoculum, in order to produce reproducible counts.) The samples were distributed on the plates using the spread-plate technique. The spread-plate technique is carried out by spreading the sample over the entire plate surface using a sterile spreading rod while rotating the plate with a rotary auto-plater. After the inoculum was absorbed completely by the agar, each plate was inverted and incubated (fungi at 22° C.+/−2° C. and bacteria at 35° C.+/−2° C.).
(§6) After incubation for at least 48 hours, colonies that had developed on the agar plates were counted (CFU) and recorded with the corresponding dilution. If counting had to be delayed temporarily, plates were refrigerated, preferably no more than 24 hours, until they could be counted. The number of CFU/mL was determined by multiplying the plate count by the dilution factor of the plate counted.
(§7) Turbidity in Nepholemetric Turbidity Units (NTU) was measured for each serial dilution using the HF-Micro 100 Model Turbidimeter. For each microorganism, the plate counts were compared to the turbidity readings.
Aspergillus niger cultures were harvested and spores dislodged from the SABD on which they were grown by rubbing the growth gently with a sterile inoculating loop. The spores were then mixed into the broth culture that had been incubated with a sterile magnetic stir bar to reduce pellicle formation. The spore-culture mixture was filtered repeatedly through sterile, nonabsorbent cotton and harvested repeatedly, adjusting vegetative cells and spores to a level of 1.0×10^8. A hemocytometer was used to verify the final challenge concentration.
(§8) Control substrates (“broth alone”) were prepared for each microorganism separately in triplicate by adding 13.5 mL of Buffered Peptone Water broth (BPW) containing 1% dextrose to each 20-mL glass tube, then adding 1.5 mL challenge material to produce a final concentration at time zero of 10^5 to 10^6 CFU/mL and a total volume of 15 mL.

[2] = tested on: Candida albicans Wild type; conditions: C. albicans
Experimental: as §1, §2, §3, §4, §5, §6, §7
On the day of challenge, the Candida albicans inoculum broth was poured through nonabsorbent sterile gauze and centrifuged. The […] was then diluted with buffered water (pH 7.2 phosphate buffer) until the desired turbidity was reached. Using a hemocytometer, a determination was made whether the challenge contained the desired concentration. Dilutions were made through 1.0×10^8 and three SABD spread plates were inoculated with 0.1 mL of each dilution. The plates were incubated for at least 48 hours and challenge counts were confirmed.
as §8

[3] = tested on: Escherichia coli ATCC 25922; conditions: E. Coli
Experimental: as §1, §2, §4, §5, §6, §7, §8
(§9) Test sample substrates were prepared containing each test material listed below at the concentrations shown for challenge testing with each microorganism separately. Sample substrates were prepared in triplicate, except the substrates containing butoxyethanol which were prepared in duplicate. Substrates were prepared by adding BPW containing 1% dextrose to each 20-mL glass tube, then adding the test material in the amount appropriate to achieve the desired weight/volume percent and to achieve a total volume of BPW plus dextrose plus test material of 13.5 mL. Then 1.5 mL challenge material was added to produce a final concentration at time zero of 10^5 to 10^6 CFU/mL and a total test sample substrate volume of 15 mL.

[4] = tested on: Proteus vulgaris Wild type
Experimental: as §1, §2, §4, §5, §6, §7, §8, §9

[5] = tested on: Staphylococcus epidermidis ATCC 12228
Experimental: as §1, §2, §4, §5, §6, §7, §8, §9

For `OCC1CCCCC1CO` (stereo not drawn) [1,2-CHDM, 1,2-cyclohexanedimethanol], the Grade ([1]; 0.5% (wt/vol), 3 day) was 4.7, the Grade ([1]; 0.5% (wt/vol), 13 day) was 4 and the Grade ([1]; 0.5% (wt/vol), 30 day) was 4. The Grade ([1]; 1.25% (wt/vol), 3 day) was 3.3, the Grade ([1]; 1.25% (wt/vol), 13 day) was 3.3 and the Grade ([1]; 1.25% (wt/vol), 30 day) was 4. The Grade ([1]; 2.5% (wt/vol), 3 day) was 2 (Countable (10 to 100 colonies)), the Grade ([1]; 2.5% (wt/vol), 13 day) was 0 and the Grade ([1]; 2.5% (wt/vol), 30 day) was 0. The Grade ([1]; 5.0% (wt/vol), 3 day) was 0, the Grade ([1]; 5.0% (wt/vol), 13 day) was 0 and the Grade ([1]; 5.0% (wt/vol), 30 day) was 0. The Grade ([2]; 0.5% (wt/vol), 3 day) was 4 (1000 to 10,000 colonies countable (thus 10,000 CFU/mL to 100,000 CFU/mL)), the Grade ([2]; 0.5% (wt/vol), 14 day) was 4 (1000 to 10,000 colonies countable (thus 10,000 CFU/mL to 100,000 CFU/mL)) and the Grade ([2]; 0.5% (wt/vol), 30 day) was 4 (1000 to 10,000 colonies countable (thus 10,000 CFU/mL to 100,000 CFU/mL)). For the same compound, the Grade ([2]; 1.25% (wt/vol), 3 day) was 4 (1000 to 10,000 colonies countable (thus 10,000 CFU/mL to 100,000 CFU/mL)), the Grade ([2]; 1.25% (wt/vol), 14 day) was 4 (1000 to 10,000 colonies countable (thus 10,000 CFU/mL to 100,000 CFU/mL)) and the Grade ([2]; 1.25% (wt/vol), 30 day) was 4 (1000 to 10,000 colonies countable (thus 10,000 CFU/mL to 100,000 CFU/mL)). The Grade ([2]; 2.5% (wt/vol), 3 day) was 0, the Grade ([2]; 2.5% (wt/vol), 14 day) was 0 and the Grade ([2]; 2.5% (wt/vol), 30 day) was 0. It also gave a Grade ([2]; 5.0% (wt/vol), 3 day) of 0, a Grade ([2]; 5.0% (wt/vol), 14 day) of 0 and a Grade ([2]; 5.0% (wt/vol), 30 day) of 0. The Grade ([3]; 0.5% (wt/vol), 3 day) was 5 (More than 10,000 colonies estimated (thus more than 100,000 CFU/mL)), the Grade ([3]; 0.5% (wt/vol), 14 day) was 4 (1000 to 10,000 colonies countable (thus 10,000 CFU/mL to 100,000 CFU/mL)) and the Grade ([3]; 0.5% (wt/vol), 30 day) was 4 (1000 to 10,000 colonies countable (thus 10,000 CFU/mL to 100,000 CFU/mL)). For the same compound, the Grade ([3]; 1.25% (wt/vol), 3 day) was 4 (1000 to 10,000 colonies countable (thus 10,000 CFU/mL to 100,000 CFU/mL)), the Grade ([3]; 1.25% (wt/vol), 14 day) was 2 (52 to 100 colonies counted (thus 520 to 1000 CFU/mL)) and the Grade ([3]; 1.25% (wt/vol), 30 day) was 3 (100 to 1000 colonies (thus 1000 to 10,000 CFU/mL)). For the same compound, the Grade ([3]; 2.5% (wt/vol), 3 day) was 2 (52 to 100 colonies counted (thus 520 to 1000 CFU/mL)), the Grade ([3]; 2.5% (wt/vol), 14 day) was 0 and the Grade ([3]; 2.5% (wt/vol), 30 day) was 0. The Grade ([3]; 5.0% (wt/vol), 3 day) was 0, the Grade ([3]; 5.0% (wt/vol), 14 day) was 0 and the Grade ([3]; 5.0% (wt/vol), 30 day) was 0. The “P. vulgaris growth grade, 3 day” value ([4]; 0.5% weight/volume) was 4 (1000 to 10,000 colonies countable (thus 10,000 CFU/mL to 100,000 CFU/mL)), the “P. vulgaris growth grade, 13 day” value ([4]; 0.5% weight/volume) was 4 (1000 to 10,000 colonies countable (thus 10,000 CFU/mL to 100,000 CFU/mL)) and the “P. vulgaris growth grade, 30 day” value ([4]; 0.5% weight/volume) was 4 (1000 to 10,000 colonies countable (thus 10,000 CFU/mL to 100,000 CFU/mL)). The “P. vulgaris growth grade, 3 day” value ([4]; 1.25% weight/volume) was 2.3, the “P. vulgaris growth grade, 13 day” value ([4]; 1.25% weight/volume) was 1 (0 to 51 colonies counted (thus 10 to 510 CFU/mL based on 0.1-mL sample)) and the “P. vulgaris growth grade, 30 day” value ([4]; 1.25% weight/volume) was 0. For the same compound, the “P. vulgaris growth grade, 3 day” value ([4]; 2.5% weight/volume) was 1 (0 to 51 colonies counted (thus 10 to 510 CFU/mL based on 0.1-mL sample)), the “P. vulgaris growth grade, 13 day” value ([4]; 2.5% weight/volume) was 0 and the “P. vulgaris growth grade, 30 day” value ([4]; 2.5% weight/volume) was 0. The “P. vulgaris growth grade, 3 day” value ([4]; 5.0% weight/volume) was 0, the “P. vulgaris growth grade, 13 day” value ([4]; 5.0% weight/volume) was 0 and the “P. vulgaris growth grade, 30 day” value ([4]; 5.0% weight/volume) was 0. For the same compound, the “S. epidermidis growth grade, 3 day” value ([5]; 0.5% weight/volume) was 4 (1000 to 10,000 colonies countable (thus 10,000 CFU/mL to 100,000 CFU/mL)), the “S. epidermidis growth grade, 13 day” value ([5]; 0.5% weight/volume) was 3 (100 to 1000 colonies (thus 1000 to 10,000 CFU/mL)) and the “S. epidermidis growth grade, 30 day” value ([5]; 0.5% weight/volume) was 4 (1000 to 10,000 colonies countable (thus 10,000 CFU/mL to 100,000 CFU/mL)). The “S. epidermidis growth grade, 3 day” value ([5]; 1.25% weight/volume) was 2.3, the “S. epidermidis growth grade, 13 day” value ([5]; 1.25% weight/volume) was 1 (0 to 51 colonies counted (thus 10 to 510 CFU/mL based on 0.1-mL sample)) and the “S. epidermidis growth grade, 30 day” value ([5]; 1.25% weight/volume) was 3 (100 to 1000 colonies (thus 1000 to 10,000 CFU/mL)). The “S. epidermidis growth grade, 3 day” value ([5]; 2.5% weight/volume) was 0, the “S. epidermidis growth grade, 13 day” value ([5]; 2.5% weight/volume) was 0 and the “S. epidermidis growth grade, 30 day” value ([5]; 2.5% weight/volume) was 0. The “S. epidermidis growth grade, 3 day” value ([5]; 5.0% weight/volume) was 0, the “S. epidermidis growth grade, 13 day” value ([5]; 5.0% weight/volume) was 0 and the “S. epidermidis growth grade, 30 day” value ([5]; 5.0% weight/volume) was 0.

— US20100160454A1, “ANTIMICROBIAL AGENTS, COMPOSITIONS AND PRODUCTS CONTAINING THE SAME, AND METHODS OF USING THE COMPOSITIONS AND PRODUCTS” (Eastman Chemical Company, priority 2008, published 2010)
